# Measured values published in US20060003027A1, “Composition and method for reducing side effects of indole-3-carbinol and derivatives” (priority 2004, published 2006).
# Key:
# [1] = Side effects observed in treated patients (case reports); assay type: in vivo, human
# Experimental: (§1) This patient was administered a high dosage of I3C, specifically 110 mg/per dose, twice daily. […] A composition (composition 1) in accordance with the present invention was then given to this patient. Composition 1 is as set forth below:
# (§2) Composition 3 was then administered to this patient for a period of eight weeks.
# [2] = test system: cervical or vaginal neoplasia; assay: Treatment of female patients with coccygeal-area pain and abnormal pap smear (pain, pap smear, biopsy); assay type: in vivo, human; conditions: I3C alone, 110 mg per dose twice daily; Example 1 patient
# Experimental: A patient, and 110 lbs. in weight, has complained of pain in the area of the coccygeal vertebra, which may reflect cervical inflammation, and/or cervical or vaginal neoplasia.
# as §1
# Composition 2 in accordance with the present invention was administered to the patient. Composition 2 is as set forth below:
# as §2
# [3] = test system: mammary carcinogenesis; conditions: rat model; cited from earlier work
# [4] = test system: HPV-induced benign tumors of laryngeal tissue; conditions: mouse model; cited from earlier work
structure (smiles),measurement,setting,value
"OCc1c[nH]c2ccccc12 [Composition I3C, Indole-3-carbinol]",side effects experienced,"[1]; I3C alone, 110 mg per dose twice daily, about a week, patient, 110 lbs","headache, dizziness and fatigue"
same,undesirable side effects,"[1]; I3C at 200 mg/day and above 200 mg/day, some people of regular body weight","headache, dizziness, stomach disturbance, convulsion, vomiting, and fatigue"
same,pain in the area of the coccygeal vertebra,[2],relief from the pain
same,inhibition of mammary carcinogenesis,[3],effective in inhibiting mammary carcinogenesis
same,growth of HPV-induced benign tumors of laryngeal tissue,[4],inhibits growth
